# Laboratory results published in patent US20080200557A1, “Method for Inhibiting Lipid Peroxidation” (CARITAS ST. ELIZABETH HOSPITAL OF BOSTON, INC., priority 2004, published 2008).
# Experiments:
# [1] = system: lipid peroxidation induced by lipopolysaccharide (LPS) in mice brain tissues; assay: LPS-induced lipid peroxidation (TBARS/MDA) in mouse brain tissues; assay type: biochemical; conditions: C57BI/6J mouse brain
# septic shock = conditions: patients suffering from septic shock; cited from earlier work
# toxic effect of LPS = conditions: laboratory animals; cited from earlier work
# [2] = system: lipid peroxidation induced by lipopolysaccharide (LPS) in rat brain tissues; assay: LPS-induced lipid peroxidation (TBARS/MDA) in rat brain homogenates; assay type: biochemical, Fisher 344N male rats; conditions: rat brain homogenate, LPS 400 μg/ml
# Method: N-acetyldopamine, melatonin, 2-thiobarbituric acid, and LPS (Escherichia coli 0127:B8) were purchased from Sigma Chemical Co. (St. Louis, Mo.). The formation of thiobarbituric acid reactive substances (TBARS) was used as index of induced oxidative damage to lipid membranes. Lipid peroxidation was induced with LPS (400 μg/ml).
# Brain tissues from Fisher 344N male rats were homogenized in 20 mM pH 7.4 Tris buffer. The homogenates were then incubated (1 hr) in solvent alone (control) or in solvent+LPS (400 μg/ml), N-acetyldopamine+LPS, NAS+LPS, melatonin+LPS, and N-acetyldopamine+NAS+LPS (for concentrations of N-acetyldopamine, NAS and melatonin, see Results). TBARS were added, and homogenates were incubated for 20 min. in a boiling water bath. After cooling, the absorbance was measured spectrophotometrically at 532 nm. TBARS concentrations were derived from a standard curve of MDA (Oxis International, Portland, Oreg.). Protein was determined by Lowry method (Sigma Chem. Co., St. Louis, Mo.). Results are expressed as mean+S.D. (n=6). Data was treated by one-way ANOVA and Student's t-test.
# LPS lethal effect = conditions: mice; cited from earlier work
# [3] = system: LPS-induced hypotensive shock; conditions: rats; cited from earlier work
# [4] = system: lipid peroxidation induced by FeCl2 in mice brain tissues; assay: FeCl2-induced lipid peroxidation (TBARS/MDA) in mouse brain tissues; assay type: biochemical, mice C57BI/J6; conditions: FeCl2 1 mM
# Method: The effect of N-substituted dopamine derivatives on FeCl2-induced oxidative damage was evaluated in mice C57BI/J6 brain tissues.
# Brain tissues from C57BI/J6 […] were homogenized in 20 mM pH 7.4 Tris buffer. The homogenates were then incubated (1 hr) in solvent alone (control) or in solvent+FeCl2, N-acetyldopamine+FeCl2, N-methyldopamine (deoxyepinephrine)+FeCl2, 3-methoxyldopamine+FeCl2, and 4-methoxydopamine (3-hydroxy-4-methoxy phenethylamine HCl)+FeCl2. TBARS were added, and homogenates were incubated for 20 min. in a boiling water bath. After cooling, the absorbance was measured spectrophotometrically at 532 nm. TBARS concentrations were derived from a standard curve of MDA (Oxis International, Portland, Oreg.). Protein was determined by Lowry method (Sigma Chem. Co., St. Louis, Mo.). Results are expressed as mean +S.D. (n=6). Data was treated by one-way ANOVA and Student's t-test
smiles,measurement,setting,value
"COc1cc(CCN)ccc1O [3-methoxydopamine, 4-hydroxyl-3-methoxy phenethylamine]","effect on LPS-induced lipid peroxidation (MDA formation), in words",[1]; FIGS. 6-7,inhibited LPS-induced formation of MDA in C57BI/6J mouse brain in a dose-dependent manner
same,inhibition of LPS-induced formation of MDA,"[1]; at 200μ, FIG. 6",50%
"COc1ccc2[nH]cc(CCNC(C)=O)c2c1 [Melatonin, melatonin]",effect on lethality,septic shock,prevent lethality
same,effect on toxic effect of LPS,toxic effect of LPS,counteract the toxic effect of LPS
same,concentration reaching statistically significant inhibition of LPS-induced lipid peroxidation,[2]; FIG. 3,800 µM
"CC(=O)NCCc1c[nH]c2ccc(O)cc12 [NAS, N-acetylserotonin]",protection against LPS lethal effect,LPS lethal effect,protects
same,protection against LPS-induced hypotensive shock,[3],protects rats against LPS-induced hypotensive shock
"CNCCc1ccc(O)c(O)c1 [N-methyldopamine, N-methyldopamine (deoxyepinephrine)]",concentration from which inhibition of FeCl2-induced formation of MDA starts,[4]; FIG. 10,25 µM
same,concentration reaching complete inhibition of FeCl2-induced formation of MDA,[4]; FIG. 10,200 µM
same,"effect on FeCl2-induced formation of MDA, in words",[4]; FIGS. 8-12,most prominent effect
CC(=O)NCCc1ccc(O)c(O)c1 [N-acetyldopamine],concentration from which inhibition of LPS-induced formation of MDA starts,"[2]; 1 hr incubation, FIG. 1",50 µM
same,concentration reaching complete inhibition of LPS-induced formation of MDA,"[2]; 1 hr incubation, FIG. 1",200 µM
same,"effect on LPS-induced lipid peroxidation (MDA formation), in words",[2]; FIGS. 1-2,inhibited LPS-induced formation of MDA in a dose-dependent manner
